Experiments:
[1] = Inhibition of human N-terminally His6-tagged N-acetylglucosaminyltransferase 3 expressed in HEK293T cells assessed as GN-GnGnbi-PAs molar ratio level incubated for 1 hr using 5 uM GnGnbi-PA acceptor substrate and 0.5 to 4 mM UDP-GlcNAc donor substrate by reverse phase HPLC method
[2] = Inhibition of human N-terminally His6-tagged N-acetylglucosaminyltransferase 3 expressed in HEK293T cells assessed as GN-GnGnbi-PAs molar ratio level incubated for 1 hr using 2.5 to 10 uM GnGnbi-PA acceptor substrate and 20 mM UDP-GlcNAc donor substrate by reverse phase HPLC method

Ki [1]	Ki [2]	SMILES
1500 µM	14000 µM	CO[C@H]1O[C@H](CO[C@H]2O[C@H](CO)[C@@H](O)[C@H](O)[C@@H]2O[C@@H]2O[C@H](CO)[C@@H](O)[C@H](O)[C@H]2NC(C)=O)[C@@H](O[C@@H]2O[C@H](CO)[C@@H](O)[C@H](O)[C@H]2NC(C)=O)[C@H](O[C@H]2O[C@H](CO)[C@@H](O)[C@H](O)[C@@H]2O[C@@H]2O[C@H](CO)[C@@H](O)[C@H](O)[C@H]2NC(C)=O)[C@@H]1O
1400 µM	1200 µM	CO[C@H]1O[C@H](CO[C@H]2O[C@H](CO)[C@@H](O)[C@H](O)[C@@H]2O[C@@H]2O[C@H](CO)[C@@H](O)[C@H](O)[C@H]2NC(C)=O)[C@@H](O)[C@H](O[C@H]2O[C@H](CO)[C@@H](O)[C@H](O)[C@@H]2O[C@@H]2O[C@H](CO)[C@@H](O)[C@H](O)[C@H]2NC(C)=O)[C@@H]1O
